Where two headings read alike, the source gives them in different places.
Experiments:
human CB2 receptors = biological target: T1, human CB2 receptors (Homo sapiens, UniProt P34972); test: human CB2 radioligand binding assay ([3H]CP 55,940 competition); details: HEK293 membranes, 0.5 nM [3H]CP 55,940
T1 construct: expressed in transfected cells; host or cells: HEK293
Method: (§1) The CB1 and CB2 radioligand binding assays described herein are utilized to ascertain the affinity of compounds of the present application for binding to CB2 relative to CB1 receptors.
HEK293 cells stably expressing human CB2 receptors were grown until a confluent monolayer was formed. Briefly, the cells were harvested and homogenized in TE buffer (50 mM Tris-HCl, 1 mM MgCl2, and 1 mM EDTA) using a polytron for 2×10 second bursts in the presence of protease inhibitors, followed by centrifugation at 45,000×g for 20 minutes. The final membrane pellet was re-homogenized in storage buffer (50 mM Tris-HCl, 1 mM MgCl2, and 1 mM EDTA and 10% sucrose) and frozen at −78° C. until used. Saturation binding reactions were initiated by the addition of membrane preparation (protein concentration of 5 μg/well for human CB2) into wells of a deep well plate containing [^3H]CP 55,940 (120 Ci/mmol, a nonselective CB agonist commercially available from Tocris) in assay buffer (50 mM Tris, 2.5 mM EDTA, 5 mM MgCl2, and 0.5 mg/mL fatty acid free BSA, pH 7.4). After 90 min incubation at 30° C., binding reaction was terminated by the addition of 300 μL/well of cold assay buffer followed by rapid vacuum filtration through a UniFilter-96 GF/C filter plates (pre-soaked in 1 mg/mL BSA for 2 hours). The bound activity was counted in a TopCount using Microscint-20. Saturation experiments were conducted with twelve concentrations of [^3H]CP 55,940 ranging from 0.01 to 8 nM. Competition experiments were conducted with 0.5 nM [^3H]CP 55,940 and five concentrations (0.01 nM to 10 μM) of displacing ligands. The addition of 10 μM unlabeled CP 55,940 (Tocris, Ellisville, Mo.) was used to assess nonspecific binding.

rat CB2 = biological target: T2, rat CB2 (Rattus norvegicus, UniProt Q9QZN9); test: rat CB2 radioligand binding assay ([3H]CP 55,940 competition); design: expressed in transfected cells; host or cells: HEK293; details: HEK293 membranes, 0.5 nM [3H]CP 55,940
T2 sequence (Q9QZN9 1-360): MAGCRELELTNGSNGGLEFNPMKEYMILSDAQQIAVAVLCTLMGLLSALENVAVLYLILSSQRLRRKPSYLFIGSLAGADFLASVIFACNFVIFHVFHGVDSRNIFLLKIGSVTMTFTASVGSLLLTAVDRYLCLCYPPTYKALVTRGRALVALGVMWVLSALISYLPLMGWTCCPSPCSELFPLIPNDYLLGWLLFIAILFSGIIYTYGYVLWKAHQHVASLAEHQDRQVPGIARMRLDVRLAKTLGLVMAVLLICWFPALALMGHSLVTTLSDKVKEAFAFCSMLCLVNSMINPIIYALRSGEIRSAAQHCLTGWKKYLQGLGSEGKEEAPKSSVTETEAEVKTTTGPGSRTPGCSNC
Method: as §1
HEK293 cells stably expressing rat CB2 receptors were grown until a confluent monolayer was formed. Briefly, the cells were harvested and homogenized in TE buffer (50 mM Tris-HCl, 1 mM MgCl2, and 1 mM EDTA) using a polytron for 2×10 second bursts in the presence of protease inhibitors, followed by centrifugation at 45,000×g for 20 minutes. The final membrane pellet was re-homogenized in storage buffer (50 mM Tris-HCl, 1 mM MgCl2, and 1 mM EDTA and 10% sucrose) and frozen at −78° C. until used. Saturation binding reactions were initiated by the addition of membrane preparation (protein concentration of 20 μg/well for rat CB2) into wells of a deep well plate containing [^3H]CP 55,940 (120 Ci/mmol, a nonselective CB agonist commercially available from Tocris) in assay buffer (50 mM Tris, 2.5 mM EDTA, 5 mM MgCl2, and 0.5 mg/mL fatty acid free BSA, pH 7.4). After 45 min incubation at 30° C., binding reaction was terminated by the addition of […] of cold assay buffer followed by rapid vacuum filtration through a UniFilter-96 GF/C filter plates (pre-soaked in 1 mg/mL BSA for 2 hours). The bound activity was counted in a TopCount using Microscint-20. Saturation experiments were conducted with twelve concentrations of [^3H]CP 55,940 ranging from 0.01 to 8 nM. Competition experiments were conducted with 0.5 nM [^3H]CP 55,940 and five concentrations of displacing ligands selected from the range of 0.01 nM to 10 μM. The addition of 10 μM unlabeled CP 55,940 (Tocris, Ellisville, Mo.) was used to assess nonspecific binding.

T1 sequence (P34972 whole entry): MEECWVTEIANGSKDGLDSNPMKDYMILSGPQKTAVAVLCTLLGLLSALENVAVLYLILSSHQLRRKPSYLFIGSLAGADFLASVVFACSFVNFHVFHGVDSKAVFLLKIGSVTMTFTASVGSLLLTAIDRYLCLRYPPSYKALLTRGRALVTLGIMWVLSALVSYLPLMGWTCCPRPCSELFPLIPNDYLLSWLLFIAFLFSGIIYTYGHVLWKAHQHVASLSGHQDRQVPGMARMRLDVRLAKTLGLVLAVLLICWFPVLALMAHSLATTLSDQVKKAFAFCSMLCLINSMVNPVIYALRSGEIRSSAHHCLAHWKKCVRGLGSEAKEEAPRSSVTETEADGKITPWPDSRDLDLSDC

SMILES	Ki (human CB2 receptors; human CB2 (Ki, nM))	Ki (rat CB2; rat CB2 (Ki, nM))	Ki (human CB2 receptors; read-out: human CB2 (Ki))	Ki (rat CB2; read-out: rat CB2 (Ki))
Cn1c(C(C)(C)C)c/c(=N\C(=O)c2cc(C(F)(F)F)ccc2OC[C@@H](O)C(C)(C)C)n1C[C@H]1CCCO1 [Example 112, N-{(3E)-5-tert-butyl-1-methyl-2-[(2R)-tetrahydrofuran-2-ylmethyl]-1,2-dihydro-3H-pyrazol-3-ylidene}-2-{[(2S)-2-hydroxy-3,3-dimethylbutyl]oxy}-5-(trifluoromethyl)benzamide]	6.7 nM	1.9 nM		
Cn1c(C(C)(C)C)c/c(=N\C(=O)c2cc(C(F)(F)F)ccc2OCC(C)(C)S(C)(=O)=O)n1C[C@H]1CCCO1 [Example 65, N-{(3E)-5-tert-butyl-1-methyl-2-[(2R)-tetrahydrofuran-2-ylmethyl]-1,2-dihydro-3H-pyrazol-3-ylidene}-2-[2-methyl-2-(methylsulfonyl)propoxy]-5-(trifluoromethyl)benzamide]			> 1000 nM	> 1000 nM
CC(C)(O)COc1ccc(C(F)(F)F)cc1C(=O)/N=c1\sc(C(C)(C)C)nn1CC1CCO1 (stereo not shown) [Example 96, N-[(2Z)-5-tert-butyl-3-(oxetan-2-ylmethyl)-1,3,4-thiadiazol-2(3H)-ylidene]-2-(2-hydroxy-2-methylpropoxy)-5-(trifluoromethyl)benzamide]	9.4 nM	6.1 nM		
C=CC(O)COc1ccc(C(F)(F)F)cc1C(=O)/N=c1\cc(C(C)(C)C)n(C)n1C[C@H]1CCCO1 (stereo partly drawn) [Example 101, N-{(3E)-5-tert-butyl-1-methyl-2-[(2R)-tetrahydrofuran-2-ylmethyl]-1,2-dihydro-3 H-pyrazol-3-ylidene}-2-[(2-hydroxybut-3-enyl)oxy]-5-(trifluoromethyl)benzamide]	1 nM	2.8 nM		
CCCCn1nc(C(C)(C)C)s/c1=N\C(=O)c1cc(C(F)(F)F)ccc1OCC(C)(C)O [Example 84, N-[(2Z)-3-butyl-5-tert-butyl-1,3,4-thiadiazol-2(3H)-ylidene]-2-(2-hydroxy-2-methylpropoxy)-5-(trifluoromethyl)benzamide]	1.8 nM	1.5 nM		
Cn1c(C(C)(C)C)c/c(=N\C(=O)c2cc(C(F)(F)F)ccc2OCc2ccccn2)n1C[C@H]1CCCO1 [Example 38, N-{(3E)-5-tert-butyl-1-methyl-2-[(2R)-tetrahydrofuran-2-ylmethyl]-1,2-dihydro-3H-pyrazol-3-ylidene}-2-(pyridin-2-ylmethoxy)-5-(trifluoromethyl)benzamide]		26 nM	> 1000 nM	
COCCCn1/c(=N/C(=O)c2cc(C(F)(F)F)ccc2OCC(C)(C)O)cc(C(C)(C)C)n1C [Example 122, N-[(3E)-5-tert-butyl-2-(3-methoxypropyl)-1-methyl-1,2-dihydro-3H-pyrazol-3-ylidene]-2-(2-hydroxy-2-methylpropoxy)-5-(trifluoromethyl)benzamide]	91 nM	27 nM		
Cn1c(C(C)(C)C)c/c(=N\C(=O)c2cc(C(F)(F)F)ccc2OCC2CCSCC2)n1C[C@H]1CCCO1 [Example 80, N-{(3E)-5-tert-butyl-1-methyl-2-[(2R)-tetrahydrofuran-2-ylmethyl]-1,2-dihydro-3 H-pyrazol-3-ylidene}-2-(tetrahydro-2H-thiopyran-4-ylmethoxy)-5-(trifluoromethyl)benzamide]		75 nM	126 nM	
CCCCn1/c(=N/C(=O)c2cc(C(F)(F)F)ccc2SCC(C)O)cc(C(C)(C)C)n1C (stereo not shown) [Example 136, N-[(3E)-2-butyl-5-tert-butyl-1-methyl-1,2-dihydro-3H-pyrazol-3-ylidene]-2-[(2-hydroxypropyl)thio]-5-(trifluoromethyl)benzamide]	44 nM	16 nM		
CCC(C)(O)COc1ccc(C(F)(F)F)cc1C(=O)/N=c1\cc(C(C)(C)C)n(C)n1C[C@H]1CCCO1 (stereo partly drawn) [Example 110, N-{(3E)-5-tert-butyl-1-methyl-2-[(2R)-tetrahydrofuran-2-ylmethyl]-1,2-dihydro-3H-pyrazol-3-ylidene}-2-(2-hydroxy-2-methylbutoxy)-5-(trifluoromethyl)benzamide]	3.5 nM	1.6 nM		
CCCCN1CC(C)(C)S/C1=N\C(=O)c1cc(C(F)(F)F)ccc1OCC(C)(C)O [Example 94, N-[(2Z)-3-butyl-5,5-dimethyl-1,3-thiazolidin-2-ylidene]-2-(2-hydroxy-2-methylpropoxy)-5-(trifluoromethyl)benzamide]	3.9 nM	5 nM		
CCCCn1/c(=N/C(=O)c2cc([N+](=O)[O-])ccc2OCC(C)(C)O)cc(C(C)(C)C)n1C [Example 138, N-[(3E)-2-butyl-5-tert-butyl-1-methyl-1,2-dihydro-3H-pyrazol-3-ylidene]-2-(2-hydroxy-2-methylpropoxy)-5-nitrobenzamide]	1.6 nM	19 nM		
CCCCn1/c(=N/C(=O)c2cc(C(F)(F)F)ccc2SCC(N)=O)cc(C(C)(C)C)n1C [Example 140, 2-[(2-amino-2-oxoethyl)thio]-N-[(3E)-2-butyl-5-tert-butyl-1-methyl-1,2-dihydro-3H-pyrazol-3-ylidene]-5-(trifluoromethyl)benzamide]	136 nM	11 nM		
CCC(O)(CC)COc1ccc(C(F)(F)F)cc1C(=O)/N=c1\cc(C(C)(C)C)n(C)n1C[C@H]1CCCO1 [Example 117, N-{(3E)-5-tert-butyl-1-methyl-2-[(2R)-tetrahydrofuran-2-ylmethyl]-1,2-dihydro-3H-pyrazol-3-ylidene}-2-(2-ethyl-2-hydroxybutoxy)-5-(trifluoromethyl)benzamide]	83 nM	69 nM		
C=C[C@H](O)COc1ccc(C(F)(F)F)cc1C(=O)/N=c1\cc(C(C)(C)C)n(C)n1C[C@H]1CCCO1 [Example 107, N-{(3E)-5-tert-butyl-1-methyl-2-[(2R)-tetrahydrofuran-2-ylmethyl]-1,2-dihydro-3 H-pyrazol-3-ylidene}-2-{[(2S)-2-hydroxybut-3-enyl]oxy}-5-(trifluoromethyl)benzamide]	2.4 nM	2.9 nM		
CN1CCC[C@H]1COc1ccc(C(F)(F)F)cc1C(=O)/N=c1\ccc(C(C)(C)C)cn1C[C@H]1CCCO1 [Example 59, N-[(2E)-5-tert-butyl-1-[(2R)-tetrahydrofuran-2-ylmethyl]pyridin-2(1H)-ylidene]-2-{[(2S)-1-methylpyrrolidin-2-yl]methoxy}-5-(trifluoromethyl)benzamide]	294 nM	69 nM		
CCCCn1cc(C(C)(C)C)o/c1=N\C(=O)c1cc(C(F)(F)F)ccc1OCC(C)(C)O [Example 93, N-[(2Z)-3-butyl-5-tert-butyl-1,3-oxazol-2(3H)-ylidene]-2-(2-hydroxy-2-methylpropoxy)-5-(trifluoromethyl)benzamide]	3.6 nM	3.9 nM		

— patent US8188135B2, “Compounds as cannabinoid receptor ligands” (priority 2008, dated 2012)
